Earlier results as cited in publication PMC5766568, “Effective photo-enhancement of cellular activity of fluorophore-octaarginine antisense PNA conjugates correlates with singlet oxygen formation, endosomal escape and chromophore lipophilicity” (Scientific Reports, 2018).
Where two headings read alike, the source gives them in different places.

From the text: This could be due to a low quantum yield for singlet oxygen formation, which unfortunately is not available.

| SMILES | log P (octanol/water) | log P (octanol/water) (fluorophore alone) |
| --- | --- | --- |
| N=c1ccc2c(-c3ccc(C(=O)O)cc3C(=O)O)c3ccc(N)c(S(=O)(=O)O)c3oc-2c1S(=O)(=O)O [AF488, Alexa Fluor 488] | −1.44 | – |
| CN(C)c1ccc2c(-c3ccccc3C(=O)[O-])c3ccc(N(C)C)cc3[o+]c2c1 [TMR fluorophore, Tetramethylrhodamine] | – | 2.92 |
